# Measured values from ChEMBL document CHEMBL5131493, “Synthesis and evaluation of RNase L-binding 2-aminothiophenes as anticancer agents” (Bioorg Med Chem, 2022).
# Key:
# [1] = system: JAR; experiment: Antiproliferative activity against human JAR cells assessed as cell growth inhibition incubated for 72 hrs by MTT assay; assay type: functional, cell-based
# [2] = system: JAR; experiment: Antiproliferative activity against human JAR cells assessed as cell growth inhibition at 10 uM incubated for 72 hrs by MTT assay relative to control; assay type: functional
# [3] = system: MCF7; experiment: Antiproliferative activity against human MCF7 cells assessed as cell growth inhibition at 10 uM incubated for 72 hrs by MTT assay relative to control; assay type: functional
# [4] = system: A549; experiment: Antiproliferative activity against human A549 cells assessed as cell growth inhibition incubated for 72 hrs by MTT assay; assay type: functional, cell-based; conditions: A549, 72 h
# [5] = system: K562; experiment: Antiproliferative activity against human K562 cells assessed as cell growth inhibition incubated for 72 hrs by MTT assay; assay type: functional, cell-based; conditions: K562, 72 h
# [6] = system: A549; experiment: Antiproliferative activity against human A549 cells assessed as cell growth inhibition at 10 uM incubated for 72 hrs by MTT assay relative to control; assay type: functional
# [7] = system: K562; experiment: Antiproliferative activity against human K562 cells assessed as cell growth inhibition at 10 uM incubated for 72 hrs by MTT assay relative to control; assay type: functional
# [8] = system: MCF7; experiment: Antiproliferative activity against human MCF7 cells assessed as cell growth inhibition incubated for 72 hrs by MTT assay; assay type: functional, cell-based; conditions: MCF7, 72 h
# [9] = organism: Homo sapiens; experiment: Binding affinity to RNase L (unknown origin) expressed in Escherichia coli BL21 (DE3) assessed as thermal stability by measuring melting temperature at 60 uM incubated for 50 mins by NanoDSF analysis
Compound,IC50 [1],inhibition at 10 µM [2],inhibition at 10 µM [3],IC50 [4],IC50 [5],inhibition at 10 µM [6],inhibition at 10 µM [7],IC50 [8],ΔTm [9]
CCOC(=O)C1=C(Nc2ccccc2)S/C(=C\c2cc3ncccc3[nH]2)C1=O,9.6 µM,74.8%,42.2%,13.6 µM,6.6 µM,–,–,–,–
CCOC(=O)C1=C(Nc2ccccc2)S/C(=C\c2cccc(C(=O)O)c2)C1=O,11.7 µM,50.6%,< 10%,–,16.2 µM,< 10%,–,–,–
CCOC(=O)C1=C(Nc2ccccc2Br)S/C(=C\c2ccc[nH]2)C1=O,8.9 µM,62.7%,29.4%,43.2 µM,36.3 µM,–,20.5%,27.1 µM,–
CCOC(=O)C1=C(Nc2ccc(C)cc2)S/C(=C\c2ccc[nH]2)C1=O,–,< 10%,< 10%,–,–,20.9%,–,–,–
CCOC(=O)C1=C(Nc2cccc(F)c2)S/C(=C\c2ccc[nH]2)C1=O,22.6 µM,45.4%,< 10%,–,> 100 µM,< 10%,–,–,–
CCOC(=O)C1=C(Nc2ccccc2)S/C(=C\c2ccc(OC)cc2)C1=O,–,32.9%,14.7%,–,–,17.5%,9.6%,–,–
CCOC(=O)C1=C(Nc2ccccc2)S/C(=C\c2ccccc2O)C1=O,8 µM,89.4%,–,16.9 µM,8.8 µM,–,–,15.1 µM,–
CN1CCN(c2cc3c(cc2[N+](=O)[O-])-c2c(cnn2-c2ccc(C(=O)O)cc2)C(C)(C)O3)CC1,9.3 µM,53.5%,–,> 100 µM,16.5 µM,–,–,–,–
CCOC(=O)C1=C(Nc2ccccc2)S/C(=C\c2cc3cnccc3[nH]2)C1=O,–,< 10%,–,–,–,–,–,–,–
CCOC(=O)C1=C(Nc2ccc([N+](=O)[O-])cc2)S/C(=C\c2ccc[nH]2)C1=O,15.6 µM,54.9%,–,–,> 100 µM,–,–,–,–
CCOC(=O)C1=C(Nc2ccccc2)S/C(=C\c2ccc(C(=O)OCC)[nH]2)C1=O,10.6 µM,60.1%,–,> 100 µM,46.8 µM,< 10%,18.6%,30.5 µM,–
CCOC(=O)C1=C(Nc2ccc(F)cc2)S/C(=C\c2ccc[nH]2)C1=O,15.9 µM,61.5%,< 10%,–,> 100 µM,< 10%,–,–,–
CCOC(=O)C1=C(Nc2ccccc2)S/C(=C\c2cccc(O)c2)C1=O,17 µM,51.9%,24.1%,–,38.7 µM,30.6%,–,–,0.5 °C
CCOC(=O)C1=C(Nc2ccccc2)S/C(=C\c2ccc([N+](=O)[O-])c(O)c2)C1=O,12.7 µM,51.2%,41.5%,19.1 µM,12.7 µM,–,–,–,–
CCOC(=O)C1=C(Nc2ccc(OC)c(OC)c2)S/C(=C\c2ccc[nH]2)C1=O,–,47.9%,–,–,–,–,–,–,–
CCOC(=O)C1=C(Nc2ccc(Br)cc2)S/C(=C\c2ccc[nH]2)C1=O,27 µM,41.5%,< 10%,–,–,< 10%,17%,–,–
CCOC(=O)C1=C(Nc2ccccc2)S/C(=C\c2c[nH]c3ccccc23)C1=O,14.1 µM,57.6%,25%,–,> 100 µM,19.8%,–,–,–
CCOC(=O)C1=C(Nc2ccccc2)S/C(=C\c2ccc[nH]2)C1=O,9.5 µM,49.2%,18.3%,> 100 µM,71 µM,23.5%,16.2%,48 µM,–
CCOC(=O)C1=C(Nc2ccccc2)S/C(=C\c2cc(OC)ccc2OC)C1=O,–,38.1%,< 10%,–,–,< 10%,30.7%,–,0.5 °C
CCOC(=O)C1=C(Nc2ccccc2)S/C(=C\c2ccccc2)C1=O,–,20.3%,23.6%,–,–,29.6%,42.9%,–,0.8 °C
CCOC(=O)C1=C(Nc2ccc(CC)cc2)S/C(=C\c2ccc[nH]2)C1=O,–,< 10%,–,–,–,17.5%,–,–,–
